Data published in patent US20260216067A1, “CARRIER AS A MULTIFUNCTIONAL SYSTEM” (LIFESOME THERAPEUTICS, S.L., priority 2022, published 2026).

Tests used:
MDA MB 231 = experiment: MTT cell viability test, MDA MB 231; assay type: cell-based; conditions: Homo sapiens, 72 h, up to 3 days, read-out: tumor cell viability
Experimental: (§1) Ohmline nanoparticles were used to deliver docetaxel into different cancer cell lines. Cell viability was determined using tetrazolium salt reduction method (MTT)(CyQUANT™ MTT Cell Viability Assary, Thermo Fisher Scientific product V13154: https://www.thermofisher.com/order/catalog/product/V13154?ef_id=4431670897231bd9f4af0 436727d3335: G: s&s_kwcid=AL!3652!10!77240846955634!77240903742099&cid=bid_pca_i va_r01_co_cp1359_pjt0000_bid00000_Ose_bng_nt_pur_con&msclkid=4431670897231bd9f 4af0436727d3335 #/V13154), that reflects the number of viable cells. 6500 cells were seeded at day=0 in a 48 wells plate. Each well was filled up with the regular medium of the cancer cell. At day=1 the medium was aspirated and replaced with new media for each formulation to be tested. Cells were incubated up to 3 days.
(§2) At the end of the incubation, the medium was aspirated and replaced with MTT solution at 0.5 mg/ml concentration. The plate was incubated at 37° C. by 30-45 min. After incubation the supernatant was aspirated, and the formed crystals dissolved with DMSO and gently agitation at room temperature protected from the light. 200 μl were transferred from each well to 96 well plates to measure the absorbance at 570 nm. (see FIGS. 8A, 8B and 8C).
(§3) Ohmline control at 1 and 5 μM, in MLV formulation.
(§4) DOX is docetaxel at 0,5 and 1 nM, in DMSO. […]

MCF7 = experiment: MTT cell viability test, MCF7; assay type: cell-based; conditions: Homo sapiens, 72 h, up to 3 days, read-out: tumor cell viability
Experimental: as §1, §2, §3, §4

PC3 = experiment: MTT cell viability test, PC3; assay type: cell-based; conditions: Homo sapiens, PC-3, 72 h, up to 3 days, read-out: tumor cell viability
Experimental: as §1, §2, §3, §4

SW620 = experiment: MTT cell viability test, SW620; assay type: cell-based; conditions: Homo sapiens, SW-620, 72 h, up to 3 days, read-out: tumor cell viability
Experimental: as §1, §2, §3, §4

MDA MB 435 = experiment: MTT cell viability test, MDA MB 435; assay type: cell-based; conditions: Homo sapiens, 72 h, up to 3 days, read-out: tumor cell viability
Experimental: as §1, §2, §3, §4

[1] = test system: MDA-MB-231, HCT116, PC3, HaCaT and fibroblasts; conditions: 25 μM for 48 h; cited from earlier work
[2] = test system: SK3-expressing cancer cells; conditions: at 10 nM; cited from earlier work
SK2 channel = SK2 channel (Homo sapiens, UniProt Q9H2S1); conditions: cited from earlier work
SK2 channel, sequence (Q9H2S1 whole entry): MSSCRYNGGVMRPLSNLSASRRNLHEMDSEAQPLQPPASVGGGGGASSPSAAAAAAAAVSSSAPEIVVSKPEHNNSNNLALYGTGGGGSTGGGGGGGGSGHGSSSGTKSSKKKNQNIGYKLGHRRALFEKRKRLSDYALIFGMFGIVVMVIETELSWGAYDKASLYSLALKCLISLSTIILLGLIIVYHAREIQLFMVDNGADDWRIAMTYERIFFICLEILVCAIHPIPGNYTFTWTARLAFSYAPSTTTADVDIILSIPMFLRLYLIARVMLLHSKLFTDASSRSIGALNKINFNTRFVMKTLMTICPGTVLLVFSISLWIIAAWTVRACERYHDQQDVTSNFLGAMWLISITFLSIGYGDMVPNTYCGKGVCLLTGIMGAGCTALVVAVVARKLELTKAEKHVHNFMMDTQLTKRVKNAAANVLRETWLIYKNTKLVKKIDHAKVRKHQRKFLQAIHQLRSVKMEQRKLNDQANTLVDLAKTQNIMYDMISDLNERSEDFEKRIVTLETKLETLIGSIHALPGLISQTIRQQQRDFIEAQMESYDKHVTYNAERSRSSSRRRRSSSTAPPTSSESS

IKCa/SK4 channel = IKCa/SK4 channel (Homo sapiens, UniProt O15554); conditions: cited from earlier work
IKCa/SK4 channel, sequence (O15554 whole entry): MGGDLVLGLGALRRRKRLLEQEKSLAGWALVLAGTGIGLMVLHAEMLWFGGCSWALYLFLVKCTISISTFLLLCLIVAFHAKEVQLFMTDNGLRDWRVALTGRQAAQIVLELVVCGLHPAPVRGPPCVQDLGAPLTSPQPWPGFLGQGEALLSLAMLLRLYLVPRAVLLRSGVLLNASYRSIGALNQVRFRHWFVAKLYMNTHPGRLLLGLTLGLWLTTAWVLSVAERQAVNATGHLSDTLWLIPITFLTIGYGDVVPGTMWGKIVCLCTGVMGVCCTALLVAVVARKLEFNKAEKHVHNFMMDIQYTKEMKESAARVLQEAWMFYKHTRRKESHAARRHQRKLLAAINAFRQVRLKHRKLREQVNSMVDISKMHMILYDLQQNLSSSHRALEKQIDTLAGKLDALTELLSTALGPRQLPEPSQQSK

[3] = Ames tests; cited from earlier work
[4] = rodents; no observable tissue damage by a pathologist; cited from earlier work
[5] = cited from earlier work
SKCa channels = conditions: cited from earlier work
[6] = cited from earlier work; remark: listed apart in the source
SK3-expressing cells = conditions: in vivo; cited from earlier work
[7] = 15 mg/Kg, up to 4 months treatment; cited from earlier work
[8] = test system: receptors for lysophosphatidic acid (LPA); conditions: cited from earlier work
[9] = ADME studies, distribution; assay type: in vivo
protein kinase C (PKC) = conditions: cited from earlier work
[10] = molecular target: receptors for platelet activating factor (PAF) (Homo sapiens, UniProt P25105); conditions: cited from earlier work
receptors for platelet activating factor (PAF), sequence (P25105 whole entry): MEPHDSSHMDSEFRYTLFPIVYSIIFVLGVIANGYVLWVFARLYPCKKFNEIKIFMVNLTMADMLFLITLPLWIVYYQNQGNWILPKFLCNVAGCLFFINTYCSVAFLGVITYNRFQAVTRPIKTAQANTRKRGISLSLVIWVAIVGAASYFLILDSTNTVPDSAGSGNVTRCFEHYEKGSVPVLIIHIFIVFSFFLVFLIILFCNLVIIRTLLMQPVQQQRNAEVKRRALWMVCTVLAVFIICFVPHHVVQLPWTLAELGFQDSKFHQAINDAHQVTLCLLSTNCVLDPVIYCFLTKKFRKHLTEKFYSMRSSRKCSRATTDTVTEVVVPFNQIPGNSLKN

SK3 channel = SK3 channel (Homo sapiens, UniProt Q9UGI6); conditions: cited from earlier work

## CC(=O)O[C@@]12CO[C@@H]1C[C@H](O)[C@@]1(C)C(=O)[C@H](O)C3=C(C)[C@@H](OC(=O)[C@H](O)[C@@H](NC(=O)OC(C)(C)C)c4ccccc4)C[C@@](O)([C@@H](OC(=O)c4ccccc4)[C@H]21)C3(C)C [DOX, docetaxel]
MDA MB 231; DOX 0.5 nM in DMSO
  viability at 0.0005 µM: 72%
MDA MB 231; DOX 1 nM in DMSO
  viability at 0.001 µM: 73%
MCF7; DOX 0.5 nM in DMSO
  viability at 0.0005 µM: 97%
MCF7; DOX 1 nM in DMSO
  viability at 0.001 µM: 84%
PC3; DOX 0.5 nM in DMSO
  viability at 0.0005 µM: 79%
PC3; DOX 1 nM in DMSO
  viability at 0.001 µM: 73%
SW620; DOX 0.5 nM in DMSO
  viability at 0.0005 µM: 99%
SW620; DOX 1 nM in DMSO
  viability at 0.001 µM: 92%
MDA MB 435; DOX 0.5 nM in DMSO
  viability at 0.0005 µM: 100%
MDA MB 435; DOX 1 nM in DMSO
  viability at 0.001 µM: 69%

## CCCCCCCCCCCCCCCCCCOCC(COP(=O)([O-])OCC[N+](C)(C)C)OC (centres unmarked) [Edelfosine]
[1]
  cells still alive: ~0%

## CCCCCCCCCCCCCCCCOCC(COC1OC(CO)C(OC2OC(CO)C(O)C(O)C2O)C(O)C1O)OC (centres unmarked) [Ohmline, 1-O-hexadecyl-2-O-methyl-sn-glycero-3-lactose]
[2]
  reduction of migration of SK3-expressing cancer cells (efficiency): 50%
SK2 channel
  effect on SK2 channel: only slightly but not significantly affected
IKCa/SK4 channel
  effect on IKCa/SK4 channel: did not affect
[3]
  mutagenic potential: no mutagenic potential
[4]
  tolerance and safety: good tolerance and an apparent safety
[5]; at 100 μM
  micronuclei test effect: weak positive effect
[5]; concluded from Ames and micronuclei tests
  in vitro concentrations with no toxicity or genotoxicity: lower than 10 μM
SKCa channels
  displacement of apamin from SKCa channels: did not displace
[6]; after the end of administration
  persistence in brain: present in brain still two weeks after the end of its administration
[6]; stomach, intestine, kidney, liver, heart and brain
  incorporation in tissues: incorporated in the tissues tested
SK3-expressing cells
  metastasis development: reduce not only bone metastasis development but also lung and lymph node metastases
[7]
  acute toxicity: no acute toxicity
[8]
  effect on receptors for lysophosphatidic acid (LPA): no effect
[9]
  distribution to brain: able to cross the blood brain barrier
Protein kinase C (PKC)
  effect on protein kinase C (PKC): no effect
[10]
  effect on receptors for platelet activating factor (PAF): no effect
SK3 channel; SK3 channel
  IC50: 300 nM
SK3 channel
  potency SK3 versus SK1 channel: greater for SK3 channel than for SK1 channel
